The values below come from patent US20060020042A1, “Memantine for the treatment of mild and mild to moderate Alzheimer's disease” (Forest Laboratories, Inc., priority 2004, published 2006).

The structures appear in SMILES notation.

For data set [1] the following is noted: cited from earlier work.
Data set [2] relates to outpatients with mild-to-moderate Alzheimer's disease. Kind of data set: ADAS-cog in randomized, double-blind, placebo-controlled study. It is filed as in vivo, human. As to conditions: for ADAS-cog Non-Responder, number of patients / ADAS-cog Responder (change from baseline <= -4), number of patients / ADAS-cog Difference (memantine minus placebo, LS mean): Week 24, ITT; for ADAS-cog Difference (memantine minus placebo, LS mean): 20 mg/day. An excerpt:
The present invention is based on results from a randomized, double-blind, placebo-controlled, multi-center, parallel-group study comparing memantine to placebo in outpatients diagnosed with probable AD according to […] criteria. Severity of mild to moderate was established using the Mini-Mental State Examination (MMSE) score (≧10 and ≦22; 0 is the lowest score and 30 is the highest score). In the study of the present invention, there were approximately 400 patients enrolled across 42 centers. Evaluation of primary efficacy was achieved by Alzheimer's Disease Assessment Scale-cognitive subscale (ADAS-cog) and the Clinician's Interview-Based Impression of Change including caregiver information (CIBIC-plus). Secondary efficacy was determined using Alzheimer's disease Cooperative Study-Activities of Daily Living (ADCS-ADL) and Neuropsychiatric Inventory (NPI) criteria. The ADAS-cog comprises an 11-item scale that is used to assess the severity of selected areas of cognitive impairment (memory, language, orientation, reason and praxis). Scores range from 0 to 70 with lower scores indicating lesser severity and a score of 70 representing the worst cognitive impairment. Its use in assessing and following changes in patients with mild to moderate Alzheimer's disease has been extensively validated. The ADAS-cog was administered at each clinic visit starting with the Baseline visit and at the end of weeks 4, 8, 12, 18 and 24 (or upon early termination). The study consisted of 1-2 weeks of single-blind placebo treatment followed by 24 weeks of double-blind treatment. Results were evaluated over seven clinical visits; at initial screening, baseline, and the end of weeks 4, 8, 12, 18 and 24. The population of patients who received at least one dose of double-blind memantine, and completed at least one post-baseline efficacy evaluation of either the ADAS-cog or the CIBIC-plus is designated the “intent-to-treat” (ITT) population. The population of randomized patients who received at least one dose of double-blind study medication is designated the “safety population”. The randomized population designates all patients randomized into the study. This study was conducted as a fixed-dose study. All patients assigned to the memantine group received an initial dose of 5 mg per day; the dose was titrated in 5 mg weekly increments to a final dose of 20 mg/day (administered as two 5 mg tablets twice a day). Study drug was provided as blister packs containing masked study medication such that placebo and memantine tablets were visually identical, and all patients received four tablets of study medication daily (in combinations of memantine 5 mg tablets and matching placebo tablets). Transient dose adjustments were permitted between weeks 3 and 8 for patients experiencing dose-limiting adverse events. However, all patients were required to receive the target dose of 20 mg/day by the end of week 8. Patients not able to tolerate the target dose by week 8 were discontinued from the study. Statistical analysis. For primary efficacy measurements, (e.g., change from Baseline (visit 2) to Week 24 in the total ADAS-cog scores from the ITT population) the comparison between memantine and placebo were performed using two-way analysis of covariance (ANCOVA) with treatment group and center as the two factors, and the baseline scores as covariate. Both the Last Observation Carried Forward (LOCF) imputation approach and the Observed Cases (OC) approach were performed at week 24. Results of ANCOVA were summarized using least square (LS) means for each treatment group with corresponding standard error (SE), the between-treatment (2-24 week) difference in the least square means with corresponding 95% confidence interval, and the between-treatment p-value corresponds to the SAS Type III sum of squares.

Data set [3] concerns mild-to-moderate AD subjects. Description: Snodgrass picture naming activation task during PET. It is filed as in vivo, human. How it is done:
Snodgrass Picture Naming Task. […] In the present invention, all patients who were subjected to PET scanning were evaluated during imaging using the Snodgrass picture naming activation task, The use of a task during the FDG uptake was used to image increases in the hippocampus and temporal lobe. This Snodgrass Picture Naming activation task was sensitive to object naming, which is impaired in mild to moderate AD. The Snodgrass picture naming activation task and performance analysis was based, in part, on the speed of identification and articulation of the name that corresponds to a set of 260 pictures (Snodgrass and Vanderwart, J. Experimental Psychology: Human Learning and Memory 1980; 6(2): 174-215). The pictures are black-and-white line drawings executed according to a set of rules that provide consistency of pictorial representation. The pictures were standardized on four variables of central relevance to memory and cognitive processing: […]

In the case of `CC12CC3CC(C)(C1)CC(N)(C3)C2` [Memantine, 1-amino-3,5-dimethyladamantane], the “solubility in aqueous media” value in data set [1] was “highly soluble”. Further, the entries for the “ADAS-cog Non-Responder, number of patients” value in data set [2] (LOCF analysis) and in data set [2] (OC analysis) were 158/148 and 129/126, respectively. Also, the “ADAS-cog Responder (change from baseline <= -4), number of patients” value in data set [2] (LOCF analysis) was 40/47; in data set [2] (OC analysis) it was 33/34. For the same compound, the “ADAS-cog Difference (memantine minus placebo, LS mean)” value in data set [2] (LOCF analysis, p=0.003) is listed as −1.9; in data set [2] (OC analysis, p=0.130), −1.1. Also, the “ADAS-cog LS mean change” value in data set [2] (week 8, LOCF, placebo 0.2, p 0.003) is given as −1.2; in data set [2] (week 8, OC, placebo 0.2, p=0.006) it was −1.1; in data set [2] (week 12, LOCF, placebo -0.1, p=0.009), −1.4. Moreover, in data set [3] (memantine vs placebo), the “difference in Snodgrass performance between the two treatment groups” value is reported as “no significant difference”. Moreover, the “Snodgrass picture naming activation task performance” value in data set [3] (memantine-treated subjects during PET) was “better than chance”.
